The target in assay [1] is T1, His tagged PTPN2 (TC45) protein (Homo sapiens, UniProt P17706).
T1 construct: made in house
T1 sequence (P17706 with tags, fused parts or gaps isoform P17706-2): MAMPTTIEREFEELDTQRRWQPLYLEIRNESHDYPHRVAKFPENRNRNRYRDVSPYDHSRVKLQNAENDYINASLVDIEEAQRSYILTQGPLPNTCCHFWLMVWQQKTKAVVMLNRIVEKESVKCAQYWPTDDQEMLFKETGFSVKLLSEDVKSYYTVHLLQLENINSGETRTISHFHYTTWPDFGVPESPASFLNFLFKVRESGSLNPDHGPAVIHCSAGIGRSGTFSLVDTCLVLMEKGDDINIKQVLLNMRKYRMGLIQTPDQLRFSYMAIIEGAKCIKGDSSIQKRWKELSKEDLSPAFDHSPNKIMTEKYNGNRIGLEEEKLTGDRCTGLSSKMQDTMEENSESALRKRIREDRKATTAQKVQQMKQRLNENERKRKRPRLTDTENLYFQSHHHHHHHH
The assay can be described thus: Mobility Shift Assay used to determine potency of PTPN2 inhibitors. Format: biochemical. The conditions noted are these: Table 2; read-out: PTPN2 MSA IC50. Here is the method:
Example 292: Mobility Shift Assay used to determine potency of PTPN2 inhibitors
Compound activity was determined using in house His tagged PTPN2 (TC45) protein (SEQ ID NO: 1) in an in vitro enzymatic reaction. The enzymatic assay used to determine activity was a mobility shift assay using a LabChip EZ Reader by Caliper Life Sciences. The enzymatic reaction was carried out in assay buffer (50 mM HEPES pH 7.5, 1 mM EGTA, 10 mM EDTA, 0.01% Tween® 20, and 2 mM DTT). The compounds were dispensed on a white 384 well ProxiPlate™ (PerkinElmer Catalog#6008289) plate using the Labcyte Echo at varying concentrations (12 point, 1:3 dilution). The enzyme (at 0.5 nM) was incubated with compound for 10 minutes at room temperature. Then the substrate (phosphorylated insulin receptor probe sequence: ((OG488)—{NH—CH2—CH2—O—CH2—CH2—O—CH2—CO)—T—R—D—I—(PY)—E—T—D—Y—Y—R—K—K—NH2) (SEQ ID NO: 2) was added at 2 μM to the plates and incubated for another 10 minutes at room temperature. Finally, a quench solution (water and 4-bromo-3-(2-oxo-2-propoxyethoxy)-5-(3-{[1-(phenylmethanesulfonyl)piperidin-4-yl]amino}phenyl)thiophene-2-carboxylic acid) was added to the plates, which were then run on the EZ Reader (excitation 488 nm, emission 530 nm) to measure % conversion (the amount of phosphorylated substrate which was de-phosphorylated by PTPN2). […] The % inhibition was then used to calculate the IC50 values.

The target of assay [2] is T2, His tagged full-length PTP1B protein (Homo sapiens, UniProt P18031).
T2 construct: made in house
T2 sequence (P18031 with tags, fused parts or gaps): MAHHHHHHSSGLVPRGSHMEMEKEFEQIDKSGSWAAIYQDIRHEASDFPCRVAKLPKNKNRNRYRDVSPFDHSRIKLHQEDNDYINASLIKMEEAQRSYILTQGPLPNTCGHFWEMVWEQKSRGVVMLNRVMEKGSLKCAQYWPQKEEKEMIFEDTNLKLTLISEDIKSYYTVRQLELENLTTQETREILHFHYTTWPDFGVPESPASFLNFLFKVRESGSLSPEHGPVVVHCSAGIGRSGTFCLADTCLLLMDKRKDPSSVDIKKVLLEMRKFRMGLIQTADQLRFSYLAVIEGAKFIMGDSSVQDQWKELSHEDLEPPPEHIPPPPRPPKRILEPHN
The assay can be described thus: Mobility Shift Assay (MSA) used to determine potency of PTP1B inhibitors. The format is biochemical. The conditions noted are these: Table 2. The procedure: The enzymatic assay used to determine activity is a mobility shift assay using a LabChip EZ Reader by Caliper Life Sciences. The enzymatic reaction was carried out in assay buffer (50 mM HEPES pH 7.5, 1 mM EGTA, 10 mM EDTA, 0.01% Tween® 20, and 2 mM DTT). […] The enzyme (at 0.5 nM) was incubated with compound for 10 minutes at room temperature. […] The % inhibition was then used to calculate the IC50 values.

pIC50: −log10 of the molar value. Some results are limits rather than exact numbers.

From patent US20230019236A1, “PROTEIN TYROSINE PHOSPHATASE INHIBITORS AND METHODS OF USE THEREOF” (Calico Life Sciences LLC, priority 2019, published 2023) come the findings set out here.

One may read the pIC50 as the IC50 on a negative log10 scale, so that one unit is a factor of ten. As for `O=C1CN(c2c(O)cc3ccc(OCCCC(F)F)cc3c2F)S(=O)(=O)N1` [Compound 372, 5-[7-(4,4-difluorobutoxy)-1-fluoro-3-hydroxynaphthalen-2-yl]-1λ^6,2,5-thiadiazolidine-1,1,3-trione], in assay [1], the pIC50 was above 9.00.
Still for that read-out and setting: in the case of `CN(CCC#N)CCOc1ccc2cc(O)c(N3CC(=O)NS3(=O)=O)c(F)c2c1` [Compound 389, 3-[(2-{[8-fluoro-6-hydroxy-7-(1,1,4-trioxo-1λ^6,2,5-thiadiazolidin-2-yl)naphthalen-2-yl]oxy}ethyl)(methyl)amino]propanenitrile] it was 8.00 to 9.00.
Still for that read-out and setting: then `C[C@](O)(CO)CCOc1cc2c(F)c(N3CC(=O)NS3(=O)=O)c(O)cc2cc1O` [Compound 387, 5-{7-[(3R)-3,4-dihydroxy-3-methylbutoxy]-1-fluoro-3,6-dihydroxynaphthalen-2-yl}-1λ^6,2,5-thiadiazolidine-1,1,3-trione], with above 9.00; and `CCN(C)CCOc1ccc2cc(O)c(N3CC(=O)NS3(=O)=O)c(F)c2c1` [Compound 388, 5-(7-{2-[ethyl(methyl)amino]ethoxy}-1-fluoro-3-hydroxynaphthalen-2-yl)-1λ^6,2,5-thiadiazolidine-1,1,3-trione], with 8.00 to 9.00; and `O=C1CN(c2c(O)cc3ccc(OCCC4COC4)cc3c2F)S(=O)(=O)N1` [Compound 373, 5-{1-fluoro-3-hydroxy-7-[2-(oxetan-3-yl)ethoxy]naphthalen-2-yl}-1λ^6,2,5-thiadiazolidine-1,1,3-trione], with 8.00 to 9.00.
Same read-out and setting: then `O=C1CN(c2c(O)cc3ccc(OCCNCC(F)(F)F)cc3c2F)S(=O)(=O)N1` [Compound 390, 5-(1-fluoro-3-hydroxy-7-{2-[(2,2,2-trifluoroethyl)amino]ethoxy}naphthalen-2-yl)-1λ^6,2,5-thiadiazolidine-1,1,3-trione], with 8.00 to 9.00; and `COCCN(C)CCOc1ccc2cc(O)c(N3CC(=O)NS3(=O)=O)c(F)c2c1` [Compound 382, 5-(1-fluoro-3-hydroxy-7-{2-[(2-methoxyethyl)(methyl)amino]ethoxy}naphthalen-2-yl)-1λ^6,2,5-thiadiazolidine-1,1,3-trione], with 7.00 to 8.00; and `O=C1CN(c2c(O)cc3ccc(C4=CCN(CCC5CC5)C4)cc3c2F)S(=O)(=O)N1` [Compound 244, 5-{7-[1-(2-cyclopropylethyl)-2,5-dihydro-1H-pyrrol-3-yl]-1-fluoro-3-hydroxynaphthalen-2-yl}-1λ^6,2,5-thiadiazolidine-1,1,3-trione], with 7.00 to 8.00.
For `O=C1CN(c2c(O)cc3ccc(OCCN4CC(F)(F)C4)cc3c2F)S(=O)(=O)N1` [Compound 385, 5-{7-[2-(3,3-difluoroazetidin-1-yl)ethoxy]-1-fluoro-3-hydroxynaphthalen-2-yl}-1λ^6,2,5-thiadiazolidine-1,1,3-trione], the pIC50 in assay [1] was 8.00 to 9.00.
On to `CC1(O)CN(CCOc2ccc3cc(O)c(N4CC(=O)NS4(=O)=O)c(F)c3c2)C1` [Compound 380, 5-{1-fluoro-3-hydroxy-7-[2-(3-hydroxy-3-methylazetidin-1-yl)ethoxy]naphthalen-2-yl}-1λ^6,2,5-thiadiazolidine-1,1,3-trione], for which the pIC50 in assay [1] was 8.00 to 9.00.
Take `O=C1CN(c2c(O)cc3ccc(OCCCC(F)(F)CO)cc3c2F)S(=O)(=O)N1` [Compound 375, 5-{7-[(4,4-difluoro-5-hydroxypentyl)oxy]-1-fluoro-3-hydroxynaphthalen-2-yl}-1λ^6,2,5-thiadiazolidine-1,1,3-trione]: the pIC50 in assay [1] was above 9.00.
Consider `NCC12CC(CCOc3ccc4cc(O)c(N5CC(=O)NS5(=O)=O)c(F)c4c3)(C1)C2` [Compound 376, 5-(7-{2-[3-(aminomethyl)bicyclo[11.1.1]pentan-1-yl]ethoxy}-1-fluoro-3-hydroxynaphthalen-2-yl)-1λ^6,2,5-thiadiazolidine-1,1,3-trione], for which the pIC50 in assay [1] was 8.00 to 9.00.
Still for that read-out and setting: then `O=C1CN(c2c(O)cc3ccc(OCCN4CCC(F)(F)C4)cc3c2F)S(=O)(=O)N1` [Compound 383, 5-{7-[2-(3,3-difluoropyrrolidin-1-yl)ethoxy]-1-fluoro-3-hydroxynaphthalen-2-yl}-1λ^6,2,5-thiadiazolidine-1,1,3-trione], with 8.00 to 9.00; and `O=C1CN(c2c(O)cc3ccc(OCC45CC(CCO)(C4)C5)cc3c2F)S(=O)(=O)N1` [Compound 377, 5-(1-fluoro-3-hydroxy-7-{[3-(2-hydroxyethyl)bicyclo[1.1.1]pentan-1-yl]methoxy}naphthalen-2-yl)-1λ^6,2,5-thiadiazolidine-1,1,3-trione], with 8.00 to 9.00; and `O=C1CN(c2c(O)cc3ccc(OCCN4CCC[C@H]4C(F)(F)F)cc3c2F)S(=O)(=O)N1` [Compound 381, 5-(1-fluoro-3-hydroxy-7-{2-[(2S)-2-(trifluoromethyl)pyrrolidin-1-yl]ethoxy}naphthalen-2-yl)-1λ^6,2,5-thiadiazolidine-1,1,3-trione], with 8.00 to 9.00.
Still for that read-out and setting: in the case of `CC1(CCOc2cc3c(F)c(N4CC(=O)NS4(=O)=O)c(O)cc3cc2O)CC1` [Compound 386, 5-{1-fluoro-3,6-dihydroxy-7-[2-(1-methylcyclopropyl)ethoxy]naphthalen-2-yl}-1λ^6,2,5-thiadiazolidine-1,1,3-trione] it was above 9.00.
For the molecule `O=C1CN(c2c(O)cc3ccc(OCCC4(CO)CCC4)cc3c2F)S(=O)(=O)N1` [Compound 374, 5-(1-fluoro-3-hydroxy-7-{2-[1-(hydroxymethyl)cyclobutyl]ethoxy}naphthalen-2-yl)-1λ^6,2,5-thiadiazolidine-1,1,3-trione], the pIC50 in assay [1] is above 9.00.
Regarding `O=C1CN(c2c(O)cc3ccc(NCCC(F)(F)F)cc3c2F)S(=O)(=O)N1` [Compound 169, 5-{1-fluoro-3-hydroxy-7-[(3,3,3-trifluoropropyl)amino]naphthalen-2-yl}-1λ^6,2,5-thiadiazolidine-1,1,3-trione], in assay [2], the pIC50 is 7.00 to 8.00.
For `O=C1CN(c2c(O)cc3ccc(NCCN4CCC4)cc3c2F)S(=O)(=O)N1` [Compound 177, 5-(7-{[2-(azetidin-1-yl)ethyl]amino}-1-fluoro-3-hydroxynaphthalen-2-yl)-1λ^6,2,5-thiadiazolidine-1,1,3-trione], the pIC50 in assay [2] is below 7.00.
Same read-out and setting: then `CC(C)S(=O)(=O)N1CC=C(c2ccc3cc(O)c(N4CC(=O)NS4(=O)=O)c(F)c3c2)C1` [Compound 296, 5-{1-fluoro-3-hydroxy-7-[1-(propane-2-sulfonyl)-2,5-dihydro-1H-pyrrol-3-yl]naphthalen-2-yl}-1λ^6,2,5-thiadiazolidine-1,1,3-trione], with above 9.00; and `O=C1CN(c2c(O)cc3ccc(C4=CCN(S(=O)(=O)CCC(F)(F)F)C4)cc3c2F)S(=O)(=O)N1` [Compound 287, 5-{1-fluoro-3-hydroxy-7-[1-(3,3,3-trifluoropropane-1-sulfonyl)-2,5-dihydro-1H-pyrrol-3-yl]naphthalen-2-yl}-1λ^6,2,5-thiadiazolidine-1,1,3-trione], with 8.00 to 9.00.
Same read-out and setting: then `O=C1CN(c2c(O)cc3ccc(OCC(=O)N4CCCC4)cc3c2F)S(=O)(=O)N1` [Compound 283, 5-{1-fluoro-3-hydroxy-7-[2-oxo-2-(pyrrolidin-1-yl)ethoxy]naphthalen-2-yl}-1λ^6,2,5-thiadiazolidine-1,1,3-trione], with 7.00 to 8.00; and `O=C1CN(c2c(O)cc3ccc(CC4CN(S(=O)(=O)C5CC5)C4)cc3c2F)S(=O)(=O)N1` [Compound 256, 5-(7-{[1-(cyclopropanesulfonyl)azetidin-3-yl]methyl}-1-fluoro-3-hydroxynaphthalen-2-yl)-1λ^6,2,5-thiadiazolidine-1,1,3-trione], with 8.00 to 9.00.
